Where a name gives a salt, the structure may show the parent alone. Read-outs that look alike come from different tables or passages of the source.
What was measured:
[1] = system: New Zealand white rabbit eyes; test: Intraocular pressure (anti-glaucoma) assay in unanesthetized rabbits, topical unilateral administration; format: in vivo; settings: for Maximum Difference in Intraocular Pressure After Solution Administration, Ipsilateral (Treated) Eye: 0.1% (W/V) in distilled water, single 50 microliter drop topically to one eye; for Maximum Difference in Intraocular Pressure After Solution Administration, Contralateral (Untreated) Eye: single 50 microliter drop to the other eye, contralateral (untreated) eye received saline
Protocol: The anti-glaucoma activity (ability to maintain or reduce intraocular pressure) of the compounds of the present invention was confirmed by the following assay procedure. This assay procedure is generally recognized in the art to provide pertinent information with respect to the anti-glaucomaactivity of the formulations assayed. Thus, each of the compounds of the invention to be tested was dissolved in distilled water at a concentration of 0.1% (W/V). Each of these solutions was administered topically and unilaterally to one eye of a drug-naive, unanesthetized New Zealand white rabbit in a single 50 microliter drop. The contralateral eye received an equal volume of saline prior to determining the intraocular pressure after the mixture was administered. Also, approximately 10 microliters of 0.5% (W/V) proparacine (topical anesthetic) was applied to the corneas of each of the rabbits before determining intraocular pressure. As a control test, six (6) other drug-naive, unanesthetized New Zealand white rabbits were treated and tested as described above except that no compound of the invention was included in the solutions administered to the eyes.
The intraocular pressure was determined in both eyes of each rabbit both before and after the solutions were administered. Such intraocular pressure determinations were made in the conventional manner using conventional equipment.

[2] = system: alpha 1 adrenergic receptors; test: Rabbit Aorta: Alpha 1 adrenergic receptor assay (isolated thoracic aorta rings, tension); settings: 37° C., cumulative addition
[3] = biological target: alpha 1 adrenergic receptors; settings: control substance; Shayes and Green, J. Pharmacol. Exp. Ther. 1971, Vol 180, pp 317-325; cited from earlier work

SMILES | Maximum Difference in Intraocular Pressure After Solution Administration, Ipsilateral (Treated) Eye [1] | Maximum Difference in Intraocular Pressure After Solution Administration, Contralateral (Untreated) Eye ([1]; 0.1% (W/V)) | reduction of intraocular pressure in the contralateral eye compared with the ipsilateral eye ([1]; result in words, New Zealand white rabbit, 0.1% (W/V)) | EC50 [2] | EC50 [3]
Cc1c(O)cccc1NC1=NCCO1 [Compound 1, 2-(3-Hydroxy-2-methylphenylamino)-Oxazoline, hydrochloride] | -3.3 ± 1.0 mm Hg | -7.3 ± 1.0 mm Hg | the reduction in the contralateral eye is greater than in the ipsilateral eye | 602 ± 108 nM | 
Cc1c(O)ccc(NC2=NCCO2)c1C.Cl [Compound 2, 2-(2,3-Dimethyl-4-hydroxyphenylamino)-oxazoline, hydrochloride] | -3.9 ± 1.9 mm Hg | -3.3 ± 0.5 mm Hg |  | 19.9 ± 15.6 nM | 
CNC[C@H](O)c1cccc(O)c1 [L-phenylephrine] |  |  |  |  | 182 nM

Source: patent US5066664A, “2-(hydroxy-2-alkylphenylamino)-oxazolines and thiazolines as anti-glaucoma and vasoconstrictive agents” (Allergan, Inc., priority 1990, dated 1991)
